Data from US20080293820A1, “METHODS FOR IMPROVING PHYSICAL FUNCTION IN FIBROMYALGIA” (Cypress Bioscience, Inc., priority 2007, published 2008).
Structures can show the parent of a compound that is named as a salt.

System: patients who meet the 1990 ACR criteria for fibromyalgia syndrome
Assay: Example 2: multicenter, double-blind, randomized, placebo-controlled monotherapy study of milnacipran for treatment of fibromyalgia (1196 patients)
Format: in vivo, human
Set-up: Mean Change from Baseline in PFI SF-36 domain score / Mean Change from Baseline in ROLP SF-36 domain score / Mean Change from Baseline in PAIN SF-36 domain score / Mean Change from Baseline in GHP SF-36 domain score: scale not given here
Conditions: for time-weighted average (AUC) of SF-36 PCS Scores, Median / time-weighted average (AUC) of SF-36 PCS Scores, Mean: Visits Tx3-Tx15, intent to treat; for Composite Pain: number of responders / Composite Syndrome: number of responders / PGIC Component: number of responders / Pain Component: number of responders / SF36 PCS Component: number of responders: 200 mg (396); for time-weighted average (AUC) of SF-36 PCS Scores, Difference from Placebo / time-weighted average (AUC) of SF-36 PCS Scores, LS Mean: Tx3-Tx15, ANCOVA model
Experimental: The primary outcome was a composite responder analysis assessing response rates of two doses (100 mg/day and 200 mg/day) of milnacipran as compared with placebo at Visit Tx15 (week 15).
This was a multicenter, randomized, double-blind, placebo-controlled three-arm study designed which enrolled 1196 patients who meet the 1990 ACR criteria for fibromyalgia syndrome (history of widespread pain and pain in 11 of 18 tender point sites on digital palpation), as well as the more detailed admission criteria outlined in the protocol.
Patients were randomized to receive placebo, 100 mg/day milnacipran or 200 mg/day milnacipran in a ratio of 1:1:1 (placebo=401 patients, 100 mg/day=399 patients, 200 mg/day=396 patients). The patients assigned to the two active treatment arms received a total of 12 weeks of stable-dose milnacipran exposure after the 3 weeks of dosage escalation steps, for a total of 15 weeks of drug exposure. All randomized medications (placebo and milnacipran) were administered twice a day (BID).
The primary efficacy assessment of this study was a composite responder status defined by three domains of interest evaluated at visit Tx15. The domains measured were
1) pain (measured by an electronic diary in the morning as a daily recall pain score); 2) patient global (measured by the PGIC, 1-7 scale); 3) physical function (measured by the SF-36 PCS).
The secondary efficacy parameters were time-weighted average (AUC) of the weekly average PED morning recall pain scores for Weeks 4 through 15, PGIC, and SF-36 PCS for Visit Tx3 to Visit Tx15.
The physical function domain for response analysis was measured by the Physical Component Summary of SF-36 (SF-36 PCS). The SF-36 is a brief, well-established, self-administered patient questionnaire for the assessment of health status, functional status, and quality of life. The SF-36 measures eight domains of health status: physical functioning, role limitations due to physical problems, bodily pain, general health perceptions, energy/vitality, social functioning, role limitations due to emotional problems, and mental health. An SF-36 PCS score and a mental component summary (MCS) score can be calculated by combining and weighting the various individual scales. The PCS and MCS scores have been standardized to have a mean=50, SD=10 in the general healthy US population (see, e.g., Ware, J., M. Kosinski, and J. Dewey, How to Score Version 2 of the SF-36 Health Survey (Standard & Acute Forms). 3rd ed. 2000, Lincoln, R.I.: QualityMetric).
A patient was classified as a responder for the treatment of pain of fibromyalgia if he or she reached Visit Tx15 and satisfied the following criteria: • Greater than or equal to 30% in pain reduction from baseline; • PGIC rated as “much or very much improved,” (i.e., a score of 1 or 2 on the 1-7 scale at endpoint.)
A patient was classified as a responder for the treatment of FMS if he or she satisfied the responder criteria for the treatment of pain of fibromyalgia and the following additional criterion (at visit Tx15): • Improvement on the SF-36 PCS score from baseline by an amount at least equivalent to the minimal clinically important difference, as defined in the Statistical Analysis Plan.
Table 6 summarizes 3-month results for the Baseline Observation Carried Forward (BOCF), Last Observation Carried Forward (LOCF) and study completer (OC) populations. LOCF is an analysis in which observations are carried forward to the last time point for patients who dropped out. The LOCF analysis treats the carried-forward data as observed data at the last time point. BOCF is an analysis that requires that the patient remain active in the trial to be evaluated for response. If a patient withdrew from the trial for any reason, they were classified as a non-responder irregardless of their pain and global scores at the time of withdrawal. […]

CCN(CC)C(=O)C1(c2ccccc2)CC1CN (racemic) [milnacipran, Z-2-aminomethyl-1-phenyl-N,N-diethylcyclopropanecarboxamide hydrochloride]
time-weighted average (AUC) of SF-36 PCS Scores, Median (100 mg, OC): 432.8 | Composite Pain: number of responders (3-months, BOCF): 98 | Composite Syndrome: number of responders (3-months, BOCF): 55 | PGIC Component: number of responders (3-months, BOCF): 129 | Pain Component: number of responders (3-months, BOCF): 119 | SF36 PCS Component: number of responders (3-months, BOCF): 89 | Composite Pain: number of responders (3-months, LOCF): 117 | Composite Syndrome: number of responders (3-months, LOCF): 65 | PGIC Component: number of responders (3-months, LOCF): 151 | Pain Component: number of responders (3-months, LOCF): 158 | SF36 PCS Component: number of responders (3-months, LOCF): 109 | Composite Pain: responder rate (200 mg, 3-months, BOCF): (24.75%) | Composite Pain: responder rate difference from placebo (unlabelled line) (200 mg, 3-months, BOCF): 8.29% | Composite Syndrome: responder rate (200 mg, 3-months, BOCF): (13.89%) | Composite Syndrome: responder rate difference from placebo (unlabelled line) (200 mg, 3-months, BOCF): 5.16% | PGIC Component: responder rate (200 mg, 3-months, BOCF): (32.58%) | PGIC Component: responder rate difference from placebo (unlabelled line) (200 mg, 3-months, BOCF): 9.64% | Pain Component: responder rate (200 mg, 3-months, BOCF): (30.05%) | Pain Component: responder rate difference from placebo (unlabelled line) (200 mg, 3-months, BOCF): 4.86% | SF36 PCS Component: responder rate (200 mg, 3-months, BOCF): (22.47%) | SF36 PCS Component: responder rate difference from placebo (unlabelled line) (200 mg, 3-months, BOCF): 1.02% | Composite Pain: responder rate (200 mg, 3-months, LOCF): (29.55%) | Composite Pain: responder rate difference from placebo (unlabelled line) (200 mg, 3-months, LOCF): 11.35% | Composite Syndrome: responder rate (200 mg, 3-months, LOCF): (16.41%) | Composite Syndrome: responder rate difference from placebo (unlabelled line) (200 mg, 3-months, LOCF): 6.68% | PGIC Component: responder rate (200 mg, 3-months, LOCF): (38.13%) | PGIC Component: responder rate difference from placebo (unlabelled line) (200 mg, 3-months, LOCF): 13.19% | Pain Component: responder rate (200 mg, 3-months, LOCF): (39.90%) | Pain Component: responder rate difference from placebo (unlabelled line) (200 mg, 3-months, LOCF): 11.22% | SF36 PCS Component: responder rate (200 mg, 3-months, LOCF): (27.53%) | SF36 PCS Component: responder rate difference from placebo (unlabelled line) (200 mg, 3-months, LOCF): 2.09% | Composite Pain: m/n = # of responders/# of patients included (200 mg, 3-months, OC): 98/215 | Composite Pain: responder rate (200 mg, 3-months, OC): (45.58%) | Composite Pain: responder rate difference from placebo (unlabelled line) (200 mg, 3-months, OC): 20.39% | Composite Syndrome: m/n = # of responders/# of patients included (200 mg, 3-months, OC): 55/215 | Composite Syndrome: responder rate (200 mg, 3-months, OC): (25.58%) | Composite Syndrome: responder rate difference from placebo (unlabelled line) (200 mg, 3-months, OC): 12.22% | PGIC Component: m/n = # of responders/# of patients included (200 mg, 3-months, OC): 129/255 | PGIC Component: responder rate (200 mg, 3-months, OC): (50.59%) | PGIC Component: responder rate difference from placebo (unlabelled line) (200 mg, 3-months, OC): 18.76% | Pain Component: m/n = # of responders/# of patients included (200 mg, 3-months, OC): 119/217 | Pain Component: responder rate (200 mg, 3-months, OC): (54.84%) | Pain Component: responder rate difference from placebo (unlabelled line) (200 mg, 3-months, OC): 16.44% | SF36 PCS Component: m/n = # of responders/# of patients included (200 mg, 3-months, OC): 89/255 | SF36 PCS Component: responder rate (200 mg, 3-months, OC): (34.90%) | SF36 PCS Component: responder rate difference from placebo (unlabelled line) (200 mg, 3-months, OC): 5.24% | time-weighted average (AUC) of SF-36 PCS Scores, Difference from Placebo (200 mg, LOCF): 8.36 | time-weighted average (AUC) of SF-36 PCS Scores, LS Mean (200 mg, LOCF): 420.38 | time-weighted average (AUC) of SF-36 PCS Scores, Difference from Placebo (200 mg, OC): 11.17 | time-weighted average (AUC) of SF-36 PCS Scores, LS Mean (200 mg, OC): 429.46 | Mean Change from Baseline in GHP SF-36 domain score (200 mg, Tx 15, Observed Cohort): 6.6 | Mean Change from Baseline in PAIN SF-36 domain score (200 mg, Tx 15, Observed Cohort): 18.2 | Mean Change from Baseline in PCS Score at Tx 15 (200 mg, Tx 15, Observed Cohort): 3.9 | Mean Change from Baseline in PFI SF-36 domain score (200 mg, Tx 15, Observed Cohort): 6.9 | Mean Change from Baseline in ROLP SF-36 domain score (200 mg, Tx 15, Observed Cohort): 14.9 | time-weighted average (AUC) of SF-36 PCS Scores, Mean (200 mg, LOCF): 418.97 | time-weighted average (AUC) of SF-36 PCS Scores, Median (200 mg, LOCF): 419.2 | time-weighted average (AUC) of SF-36 PCS Scores, Mean (200 mg, OC): 428.24 | time-weighted average (AUC) of SF-36 PCS Scores, Median (200 mg, OC): 428.4
